Test results: PubChem BioAssay (NCI)
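Briefly, cells in 96-well plates were exposed to five compound concentrations for 48 h, and endpoints were estimated by linear interpolation. Definition used: TGI = concentration required for complete inhibition of growth.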

Key:
Assay in all cases: NCI anticancer screen, dose series, 48 h
HOP-92 NSCLC = test system: HOP-92 NSCLC
OVCAR-8 ovarian = test system: OVCAR-8 ovarian
NCI/ADR-RES ovarian = test system: NCI/ADR-RES ovarian
TK-10 renal = test system: TK-10 renal
HL-60(TB) leukemia = test system: HL-60(TB) leukemia
HCT-15 colon = test system: HCT-15 colon
NCI-H226 lung = test system: NCI-H226 lung
BT-549 breast = test system: BT-549 breast
SK-OV-3 ovarian = test system: SK-OV-3 ovarian
SNB-75 CNS = test system: SNB-75 CNS
K-562 leukemia = test system: K-562 leukemia
RXF 393 renal = test system: RXF 393 renal
786-0 renal = test system: 786-0 renal
HT29 colon = test system: HT29 colon
IGROV1 ovarian = test system: IGROV1 ovarian
UACC-257 melanoma = test system: UACC-257 melanoma
HCT-116 colon = test system: HCT-116 colon
T-47D breast = test system: T-47D breast
MOLT-4 leukemia = test system: MOLT-4 leukemia
HCC-2998 colon = test system: HCC-2998 colon
SK-MEL-5 melanoma = test system: SK-MEL-5 melanoma
SN12C renal = test system: SN12C renal
SF-268 CNS = test system: SF-268 CNS
OVCAR-5 ovarian = test system: OVCAR-5 ovarian
SR leukemia = test system: SR leukemia
U251 CNS = test system: U251 CNS
MALME-3M melanoma = test system: MALME-3M melanoma
A549 NSCLC = test system: A549 NSCLC
SNB-19 CNS = test system: SNB-19 CNS
MCF7 breast = test system: MCF7 breast
NCI-H460 lung = test system: NCI-H460 lung
HOP-62 NSCLC = test system: HOP-62 NSCLC
LOX IMVI melanoma = test system: LOX IMVI melanoma
COLO 205 colon = test system: COLO 205 colon
MDA-MB-435 = test system: MDA-MB-435
OVCAR-4 ovarian = test system: OVCAR-4 ovarian
MDA-N = test system: MDA-N
KM12 colon = test system: KM12 colon
CCRF-CEM leukemia = test system: CCRF-CEM leukemia
PC-3 prostate = test system: PC-3 prostate
ACHN renal = test system: ACHN renal
SW-620 colon = test system: SW-620 colon
SK-MEL-2 melanoma = test system: SK-MEL-2 melanoma
UACC-62 melanoma = test system: UACC-62 melanoma
M14 melanoma = test system: M14 melanoma
SF-295 CNS = test system: SF-295 CNS
MDA-MB-231 breast = test system: MDA-MB-231 breast
UO-31 renal = test system: UO-31 renal
HS 578T breast = test system: HS 578T breast
SF-539 CNS = test system: SF-539 CNS
RPMI-8226 leukemia = test system: RPMI-8226 leukemia
CAKI-1 renal = test system: CAKI-1 renal
DU-145 prostate = test system: DU-145 prostate
SK-MEL-28 melanoma = test system: SK-MEL-28 melanoma
EKVX NSCLC = test system: EKVX NSCLC
NCI-H23 lung = test system: NCI-H23 lung
NCI-H522 lung = test system: NCI-H522 lung
DLD-1 colon = test system: DLD-1 colon
SNB-78 CNS = test system: SNB-78 CNS
M19-MEL melanoma = test system: M19-MEL melanoma
KM20L2 colon = test system: KM20L2 colon
A498 renal = test system: A498 renal
DMS 114 small cell lung = test system: DMS 114 small cell lung
LXFL 529 NSCLC = test system: LXFL 529 NSCLC
DMS 273 small cell lung = test system: DMS 273 small cell lung
OVCAR-3 ovarian = test system: OVCAR-3 ovarian

CCN(CC)c1ccc2cc(C(=O)Nc3ccccc3)c(=N)oc2c1
TGI (HOP-92 NSCLC): > 100 µM
TGI (OVCAR-8 ovarian): > 100 µM
TGI (NCI/ADR-RES ovarian): > 100 µM
TGI (TK-10 renal): > 100 µM
TGI (HL-60(TB) leukemia): > 100 µM
TGI (HCT-15 colon): > 100 µM
TGI (NCI-H226 lung): > 100 µM
TGI (BT-549 breast): > 100 µM
TGI (SK-OV-3 ovarian): > 100 µM
TGI (SNB-75 CNS): > 100 µM
TGI (K-562 leukemia): > 100 µM
TGI (RXF 393 renal): > 100 µM
TGI (786-0 renal): > 100 µM
TGI (HT29 colon): > 100 µM
TGI (IGROV1 ovarian): > 100 µM
TGI (UACC-257 melanoma): > 100 µM
TGI (HCT-116 colon): > 100 µM
TGI (T-47D breast): > 100 µM
TGI (MOLT-4 leukemia): > 100 µM
TGI (HCC-2998 colon): > 100 µM
TGI (SK-MEL-5 melanoma): > 100 µM
TGI (SN12C renal): > 100 µM
TGI (SF-268 CNS): > 100 µM
TGI (OVCAR-5 ovarian): > 100 µM
TGI (SR leukemia): > 100 µM
TGI (U251 CNS): > 100 µM
TGI (MALME-3M melanoma): > 100 µM
TGI (A549 NSCLC): > 100 µM
TGI (SNB-19 CNS): > 100 µM
TGI (MCF7 breast): > 100 µM
TGI (NCI-H460 lung): > 100 µM
TGI (HOP-62 NSCLC): > 100 µM
TGI (LOX IMVI melanoma): > 100 µM
TGI (COLO 205 colon): > 100 µM
TGI (MDA-MB-435): > 100 µM
TGI (OVCAR-4 ovarian): > 100 µM
TGI (MDA-N): > 100 µM
TGI (KM12 colon): > 100 µM
TGI (CCRF-CEM leukemia): > 100 µM
TGI (PC-3 prostate): > 100 µM
TGI (ACHN renal): > 100 µM
TGI (SW-620 colon): > 100 µM
TGI (SK-MEL-2 melanoma): > 100 µM
TGI (UACC-62 melanoma): > 100 µM
TGI (M14 melanoma): > 100 µM
TGI (SF-295 CNS): > 100 µM
TGI (MDA-MB-231 breast): > 100 µM
TGI (UO-31 renal): > 100 µM
TGI (HS 578T breast): > 100 µM
TGI (SF-539 CNS): > 100 µM
TGI (RPMI-8226 leukemia): > 100 µM
TGI (CAKI-1 renal): > 100 µM
TGI (DU-145 prostate): > 100 µM
TGI (SK-MEL-28 melanoma): > 100 µM
TGI (EKVX NSCLC): > 100 µM

COC1C=COC2(C)Oc3c(C)c(O)c4c(O)c(c(/C=N/N5CCN(N)CC5)c(O)c4c3C2=O)NC(=O)C(C)=CC=CC(C)C(O)C(C)C(O)C(C)C(OC(C)=O)C1C (stereo unspecified)
TGI (NCI-H23 lung): > 100 µM
TGI (HOP-92 NSCLC): > 100 µM
TGI (OVCAR-8 ovarian): > 100 µM
TGI (NCI-H522 lung): 78.2 µM
TGI (TK-10 renal): > 100 µM
TGI (HL-60(TB) leukemia): > 100 µM
TGI (HCT-15 colon): > 100 µM
TGI (NCI-H226 lung): > 100 µM
TGI (SK-OV-3 ovarian): > 100 µM
TGI (SNB-75 CNS): > 100 µM
TGI (K-562 leukemia): > 100 µM
TGI (RXF 393 renal): > 100 µM
TGI (786-0 renal): > 100 µM
TGI (HT29 colon): > 100 µM
TGI (IGROV1 ovarian): > 100 µM
TGI (DLD-1 colon): > 100 µM
TGI (UACC-257 melanoma): > 100 µM
TGI (HCT-116 colon): 80.7 µM
TGI (MOLT-4 leukemia): > 100 µM
TGI (HCC-2998 colon): > 100 µM
TGI (SK-MEL-5 melanoma): > 100 µM
TGI (SNB-78 CNS): > 100 µM
TGI (SN12C renal): > 100 µM
TGI (SF-268 CNS): > 100 µM
TGI (OVCAR-5 ovarian): > 100 µM
TGI (SR leukemia): > 100 µM
TGI (U251 CNS): > 100 µM
TGI (MALME-3M melanoma): > 100 µM
TGI (A549 NSCLC): > 100 µM
TGI (SNB-19 CNS): > 100 µM
TGI (HOP-62 NSCLC): > 100 µM
TGI (LOX IMVI melanoma): > 100 µM
TGI (COLO 205 colon): > 100 µM
TGI (M19-MEL melanoma): > 100 µM
TGI (OVCAR-4 ovarian): > 100 µM
TGI (KM12 colon): > 100 µM
TGI (CCRF-CEM leukemia): 47.9 µM
TGI (KM20L2 colon): > 100 µM
TGI (ACHN renal): > 100 µM
TGI (SW-620 colon): > 100 µM
TGI (SK-MEL-2 melanoma): > 100 µM
TGI (UACC-62 melanoma): > 100 µM
TGI (M14 melanoma): > 100 µM
TGI (SF-295 CNS): > 100 µM
TGI (A498 renal): > 100 µM
TGI (UO-31 renal): > 100 µM
TGI (SF-539 CNS): > 100 µM
TGI (RPMI-8226 leukemia): 88.8 µM
TGI (CAKI-1 renal): > 100 µM
TGI (DMS 114 small cell lung): > 100 µM
TGI (SK-MEL-28 melanoma): > 100 µM
TGI (EKVX NSCLC): > 100 µM
TGI (LXFL 529 NSCLC): > 100 µM
TGI (DMS 273 small cell lung): > 100 µM

O=C(c1ccccc1)c1ccc(-n2c3ccccc3c3ccc4c(c32)C(=O)C=CC4=O)cc1
TGI (NCI-H23 lung): 29.5 µM
TGI (HOP-92 NSCLC): 18.6 µM
TGI (OVCAR-8 ovarian): 27.2 µM
TGI (NCI/ADR-RES ovarian): 60.5 µM
TGI (NCI-H522 lung): 8.9 µM
TGI (TK-10 renal): 25.3 µM
TGI (HL-60(TB) leukemia): 18.2 µM
TGI (HCT-15 colon): 31.3 µM
TGI (NCI-H226 lung): 53.8 µM
TGI (BT-549 breast): 38.5 µM
TGI (SK-OV-3 ovarian): 42.9 µM
TGI (SNB-75 CNS): > 58.4 µM
TGI (K-562 leukemia): > 100 µM
TGI (RXF 393 renal): 19.2 µM
TGI (786-0 renal): 5.77 µM
TGI (HT29 colon): 8.35 µM
TGI (IGROV1 ovarian): 37.5 µM
TGI (UACC-257 melanoma): 27.5 µM
TGI (HCT-116 colon): 16.3 µM
TGI (T-47D breast): > 22.6 µM
TGI (MOLT-4 leukemia): > 35.4 µM
TGI (HCC-2998 colon): 29.6 µM
TGI (SK-MEL-5 melanoma): 43 µM
TGI (SN12C renal): 28.3 µM
TGI (SF-268 CNS): 26.3 µM
TGI (OVCAR-5 ovarian): 38.1 µM
TGI (SR leukemia): > 34 µM
TGI (U251 CNS): 30.4 µM
TGI (A549 NSCLC): 36.4 µM
TGI (SNB-19 CNS): 36.4 µM
TGI (MCF7 breast): 10 µM
TGI (NCI-H460 lung): 36.2 µM
TGI (HOP-62 NSCLC): 33.6 µM
TGI (LOX IMVI melanoma): 16.3 µM
TGI (COLO 205 colon): 25.9 µM
TGI (MDA-MB-435): 20.5 µM
TGI (OVCAR-4 ovarian): 31.8 µM
TGI (MDA-N): 40.6 µM
TGI (KM12 colon): 37.5 µM
TGI (PC-3 prostate): 25.8 µM
TGI (ACHN renal): 11.6 µM
TGI (SW-620 colon): 30.1 µM
TGI (SK-MEL-2 melanoma): 37.3 µM
TGI (UACC-62 melanoma): 26.7 µM
TGI (M14 melanoma): 23.6 µM
TGI (SF-295 CNS): 32.4 µM
TGI (A498 renal): 25.3 µM
TGI (MDA-MB-231 breast): 26.2 µM
TGI (UO-31 renal): 7.78 µM
TGI (HS 578T breast): > 55.5 µM
TGI (OVCAR-3 ovarian): 20.8 µM
TGI (SF-539 CNS): 34.2 µM
TGI (RPMI-8226 leukemia): > 100 µM
TGI (CAKI-1 renal): 4.4 µM
TGI (DU-145 prostate): > 40.1 µM
TGI (SK-MEL-28 melanoma): 30.1 µM
TGI (EKVX NSCLC): 26.3 µM
